# Measurements published in patent publication US6268377A, “Method for treating androgen-related conditions” (Merck & Co., Inc., priority 1999, dated 2001).
# “Also recorded” adds a separate entry of the source. Read-outs that look alike come from different tables or passages of the source.
# Experiments:
# [1] = system: men with clinical benign prostatic hyperplasia (BPH); experiment: Four-year double-blind placebo-controlled clinical study of finasteride, analysed by concomitant calcium channel blocker use; format: in vivo, human; details: for Hazard Ratio (95% CI), AUR / Hazard Ratio (95% CI), Precipitated AUR / Hazard Ratio (95% CI), Spontaneous AUR / Hazard Ratio (95% CI), Surgery / Hazard Ratio (95% CI), Surgery and AUR: finasteride vs placebo; for Urologic events: AUR (incidence) / Urologic events: Precipitated AUR (incidence) / Urologic events: Spontaneous AUR (incidence) / Urologic events: Surgery (incidence) / Urologic events: Surgery and AUR (incidence): 5 mg finasteride daily, four-year study
# Method: A total of 3040 men with clinical benign prostatic hyperplasia (BPH) diagnosed on the basis of moderate-to-severe symptoms, a decreased peak urinary flow rate (less than 15 mL/sec with a voided volume of 150 mL or more) and an enlarged prostate gland by digital rectal examination (DRE) were enrolled in a four-year study comparing finasteride with placebo. Men receiving alpha blocking agents or antiandrogens, and men with a history of chronic prostatitis, recurrent urinary tract infections, prostate or bladder cancer or surgery, or a serum prostate specific antigen (PSA) over 10 ng/mL were excluded. Men with serum PSA concentrations between 4.0 and 9.9 ng/mL had to have a negative prostate biopsy prior to enrollment.
# After a one-month single-blind placebo lead-in, men were randomly assigned to receive placebo or 5 mg of finasteride (17β-(N-tert-butylcarbamoyl)-3-oxo-4-aza-5α-androst-1-en-3-one)daily in a four year, double-blind placebo-controlled study. BPH-related outcomes including symptoms, bothersomeness, adverse events and urinary flow rates, were assessed every 4 months. Serum PSA was measured every 4 months in the first year and then every 8 months at a central laboratory. Physical examination and routine hematological and serum chemistry tests were performed yearly. Magnetic resonance imaging (MRI) was performed at baseline and subsequently yearly in a subset of 10% of patients. All MRI images were read by a central radiologist blinded to treatment allocation and time of imaging.
# Acute urinary retention (AUR) and surgery for BPH were predefined secondary end-points. The endpoint committee, blinded to treatment group, reviewed all study-related documents related to episodes of acute urinary retention, and all prostate surgeries for BPH, excluding surgery for prostate cancer. The endpoint committee classified episodes of AUR as spontaneous versus precipitated (when contributing factors such as urinary tract infection, surgery anesthesia, ingestion of alpha sympathomimetic drugs or anticholinergics were identified).
# For a relatively clean comparison, data from patients in categories (a) and (b) were analyzed and patients in category (c) were excluded.
# [2] = system: 5α-reductase 1; details: isozyme predominating in sebaceous glands of facial and skin tissue; G. Harris et al. 1992; cited from earlier work
# [3] = system: 5α-reductase 2; details: isozyme predominating in the prostate, cited from earlier work
# [4] = finasteride treated patients also on calcium channel blockers vs not on calcium channel blockers
# [5] = patients who did not take a calcium channel blocker
# [6] = patients who took a calcium channel blocker for more than 365 days
# [7] = patients who did not take a calcium channel blocker, N = 1181
# [8] = patients who took a calcium channel blocker for more than 365 days, N = 236
smiles,measurement,setting,value
"CC(C)(C)NC(=O)[C@H]1CC[C@H]2[C@@H]3CC[C@H]4NC(=O)C=C[C@]4(C)[C@H]3CC[C@]12C [Finasteride, 17β-(N-tert-butylcarbamoyl)-3-oxo-4-aza-5α-androst-1-ene-3-one]",rate of improvement in symptom score by month 16,[1]; finasteride only group,continued to increase
same,change of PSA (prostate specific antigen) versus time in the study,"[1]; finasteride plus calcium channel blocker for more than 365 days, compared with finasteride only and placebo groups (FIG. 1)",greater decrease in PSA; also recorded: greatest decrease in PSA
same,change in Quasi-AUA symptom score versus time in the study,"[1]; finasteride plus calcium channel blocker for more than 365 days, compared with finasteride only and placebo groups (FIG. 2)",initally improved much faster; also recorded: greatest decrease in symptom score
same,change in maximum urinary flow rate versus time in the study,"[1]; finasteride plus calcium channel blocker for more than 365 days, compared with finasteride only and placebo groups (FIG. 3)",greater increase in maximum urinary flow rate; also recorded: greatest increase in maximum flow rate after 12 months
same,change in prostate volume versus time in the study,"[1]; finasteride plus calcium channel blocker for more than 365 days, compared with finasteride only and placebo groups (FIG. 4)",greater decrease; also recorded: greatest decrease in prostate volume
same,rate of improvement in symptom score by month 16,[1]; finasteride plus calcium channel blocker group,decreased rate of improvement in symptom score
same,incidence of spontaneous acute urinary retention (AUR) (comparison),[1]; [4],lower
same,incidence of urologic surgery (comparison),[1]; [4],lower
same,"Hazard Ratio (95% CI), AUR",[1]; [5],0.44 (0.30 to 0.64)
same,"Hazard Ratio (95% CI), Precipitated AUR",[1]; [5],0.55 (0.31 to 0.99)
same,"Hazard Ratio (95% CI), Spontaneous AUR",[1]; [5],0.38 (0.23 to 0.62)
same,"Hazard Ratio (95% CI), Surgery",[1]; [5],0.42 (0.31 to 0.57)
same,"Hazard Ratio (95% CI), Surgery and AUR",[1]; [5],0.48 (0.37 to 0.62)
same,"Hazard Ratio (95% CI), AUR",[1]; [6],0.46 (0.20 to 1.10)
same,"Hazard Ratio (95% CI), Precipitated AUR",[1]; [6],0.50 (0.19 to 1.31)
same,"Hazard Ratio (95% CI), Spontaneous AUR",[1]; [6],0.24 (0.05 to 1.21)
same,"Hazard Ratio (95% CI), Surgery",[1]; [6],0.55 (0.25 to 1.22)
same,"Hazard Ratio (95% CI), Surgery and AUR",[1]; [6],0.53 (0.28 to 1.00)
same,Urologic events: AUR (incidence),[1]; [7],2.6%
same,Urologic events: Precipitated AUR (incidence),[1]; [7],1.4%
same,Urologic events: Spontaneous AUR (incidence),[1]; [7],1.4%
same,Urologic events: Surgery (incidence),[1]; [7],4.4%
same,Urologic events: Surgery and AUR (incidence),[1]; [7],6.4%
same,Urologic events: AUR (incidence),[1]; [8],3.0%
same,Urologic events: Precipitated AUR (incidence),[1]; [8],2.5%
same,Urologic events: Spontaneous AUR (incidence),[1]; [8],0.4%
same,Urologic events: Surgery (incidence),[1]; [8],3.8%
same,Urologic events: Surgery and AUR (incidence),[1]; [8],5.9%
same,sensitivity of 5α-reductase type 1 to finasteride,[2],relatively insensitive
same,inhibition of 5α-reductase type 2 (human prostate enzyme),[3],potent inhibitor
same,inhibition of 5α-reductase type 2 (human prostate enzyme),[3]; listed as finasteride,potently inhibited
